According to patent US5674979A, “Agent for inhibiting symmetrical proteins, in particular enzymes” (priority 1989, dated 1997):
Where two headings read alike, the source gives them in different places. Non-standard residues stand in square brackets, D forms with d. Residues, ends and D or L forms follow the SMILES beside them.

Experiments:
HIV-1 [1] = conditions: H9 cells
Protocol: Compounds (a), (b), (c), (d) were tested in the molarity range from 0.1 μM to 1000 μM. Infectivity tests were carried out as follows: an HIV-1 suspension containing 10^2 infectious units was absorbed on to 5×10^6 H9 cells in a volume of 1 ml for 2 hours at 4° C. After this time, 9 ml of tissue culture medium with the required inhibitor concentration was added. The medium was exchanged with fresh medium plus inhibitor daily. Two control cultures were also prepared, one without inhibitor to determine the normal virus replication rate, the other containing inhibitor but no virus, to determine whether the substances were cytotoxic for H9 cells. […] The amount of virus antigen produced by the infected cells was measured daily using Elisa for eight days, indicating the amount of HIV-1 antigen in the tissue culture medium. After this, the cells were pelleted, washed in medium without inhibitor, and further incubated in inhibitor-less medium. The antigen production was measured on days 9 and 12 (ie 1 and […] after removal of the inhibitor). Virus production was also measured on days 7, 8, 9, and 12 by determining the amount of reverse transcriptase in the supernatant of the cell medium.

HIV-1 [2] = tested on: HIV-1
Protocol: Infectivity tests were carried out as follows: an HIV-1 suspension containing 10^2 infectious units was absorbed on to 5×10^6 H9 cells in a volume of 1 ml for 2 hours at 4° C. After this time, 9 ml of tissue culture medium with the required inhibitor concentration was added. The medium was exchanged with fresh medium plus inhibitor daily. Two control cultures were also prepared, one without inhibitor to determine the normal virus replication rate, the other containing inhibitor but no virus, to determine whether the substances were cytotoxic for H9 cells. […] The amount of virus antigen produced by the infected cells was measured daily using Elisa for eight days, indicating the amount of HIV-1 antigen in the tissue culture medium. After this, the cells were pelleted, washed in medium without inhibitor, and further incubated in inhibitor-less medium. The antigen production was measured on days 9 and 12 (ie 1 and 3 days after removal of the inhibitor). Virus production was also measured on days 7, 8, 9, and 12 by determining the amount of reverse transcriptase in the supernatant of the cell medium.

[3] = 0,1 μM, day 9 post infection, no inhibitor (after removal)
[4] = 0,1 μM, day 12 post infection, no inhibitor (after removal)
[5] = 1 μM, day 9 post infection, no inhibitor (after removal)
[6] = 1 μM, day 12 post infection, no inhibitor (after removal)
[7] = 10 μM, day 9 post infection, no inhibitor (after removal)
[8] = 10 μM, day 12 post infection, no inhibitor (after removal)
[9] = 100 μM, day 9 post infection, no inhibitor (after removal)
[10] = 100 μM, day 12 post infection, no inhibitor (after removal)
[11] = 1000 μM, day 9 post infection, no inhibitor (after removal)
[12] = 1000 μM, day 12 post infection, no inhibitor (after removal)

CC(C)C[C@@H](NC(=O)[C@H](N)CC(N)=O)C(=O)N[C@@H](C(=O)NCC(=O)O)[C@H](C)O [A, H-(D)-Asn-(D)-Leu-(D)-Thr-Gly-OH] (H-[dN][dL][dT]G-OH)
HIV-1 antigen production as measured in antigen capture ELISA (HIV-1 [1]; 0,1 μM, day 1 post infection): 0,060 o. D. | HIV-1 antigen production as measured in antigen capture ELISA (HIV-1 [1]; 0,1 μM, day 2 post infection): 0,066 o. D. | HIV-1 antigen production as measured in antigen capture ELISA (HIV-1 [1]; 0,1 μM, day 3 post infection): 0,062 o. D. | HIV-1 antigen production as measured in antigen capture ELISA (HIV-1 [1]; 0,1 μM, day 4 post infection): 0,055 o. D. | HIV-1 antigen production as measured in antigen capture ELISA (HIV-1 [1]; 0,1 μM, day 5 post infection): 0,058 o. D. | HIV-1 antigen production as measured in antigen capture ELISA (HIV-1 [1]; 0,1 μM, day 6 post infection): 0,181 o. D. | HIV-1 antigen production as measured in antigen capture ELISA (HIV-1 [1]; 0,1 μM, day 7 post infection): 0,363 o. D. | HIV-1 antigen production as measured in antigen capture ELISA (HIV-1 [1]; 0,1 μM, day 8 post infection): 0,478 o. D. | HIV-1 antigen production as measured in antigen capture ELISA (HIV-1 [1]; [3]): 0,737 o. D. | HIV-1 antigen production as measured in antigen capture ELISA (HIV-1 [1]; [4]): 1,037 o. D. | HIV-1 antigen production as measured in antigen capture ELISA (HIV-1 [1]; 1 μM, day 1 post infection): 0,064 o. D. | HIV-1 antigen production as measured in antigen capture ELISA (HIV-1 [1]; 1 μM, day 2 post infection): 0,060 o. D. | HIV-1 antigen production as measured in antigen capture ELISA (HIV-1 [1]; 1 μM, day 3 post infection): 0,075 o. D. | HIV-1 antigen production as measured in antigen capture ELISA (HIV-1 [1]; 1 μM, day 4 post infection): 0,057 o. D. | HIV-1 antigen production as measured in antigen capture ELISA (HIV-1 [1]; 1 μM, day 5 post infection): 0,053 o. D. | HIV-1 antigen production as measured in antigen capture ELISA (HIV-1 [1]; 1 μM, day 6 post infection): 0,136 o. D. | HIV-1 antigen production as measured in antigen capture ELISA (HIV-1 [1]; 1 μM, day 7 post infection): 0,213 o. D. | HIV-1 antigen production as measured in antigen capture ELISA (HIV-1 [1]; 1 μM, day 8 post infection): 0,394 o. D. | HIV-1 antigen production as measured in antigen capture ELISA (HIV-1 [1]; [5]): 0,694 o. D. | HIV-1 antigen production as measured in antigen capture ELISA (HIV-1 [1]; [6]): 1,065 o. D. | HIV-1 antigen production as measured in antigen capture ELISA (HIV-1 [1]; 10 μM, day 1 post infection): 0,061 o. D. | HIV-1 antigen production as measured in antigen capture ELISA (HIV-1 [1]; 10 μM, day 2 post infection): 0,075 o. D. | HIV-1 antigen production as measured in antigen capture ELISA (HIV-1 [1]; 10 μM, day 3 post infection): 0,069 o. D. | HIV-1 antigen production as measured in antigen capture ELISA (HIV-1 [1]; 10 μM, day 4 post infection): 0,044 o. D. | HIV-1 antigen production as measured in antigen capture ELISA (HIV-1 [1]; 10 μM, day 5 post infection): 0,064 o. D. | HIV-1 antigen production as measured in antigen capture ELISA (HIV-1 [1]; 10 μM, day 6 post infection): 0,140 o. D. | HIV-1 antigen production as measured in antigen capture ELISA (HIV-1 [1]; 10 μM, day 7 post infection): 0,256 o. D. | HIV-1 antigen production as measured in antigen capture ELISA (HIV-1 [1]; 10 μM, day 8 post infection): 0,499 o. D. | HIV-1 antigen production as measured in antigen capture ELISA (HIV-1 [1]; [7]): 0,727 o. D. | HIV-1 antigen production as measured in antigen capture ELISA (HIV-1 [1]; [8]): 1,003 o. D. | HIV-1 antigen production as measured in antigen capture ELISA (HIV-1 [1]; 100 μM, day 1 post infection): 0,068 o. D. | HIV-1 antigen production as measured in antigen capture ELISA (HIV-1 [1]; 100 μM, day 2 post infection): 0,064 o. D. | HIV-1 antigen production as measured in antigen capture ELISA (HIV-1 [1]; 100 μM, day 3 post infection): 0,065 o. D. | HIV-1 antigen production as measured in antigen capture ELISA (HIV-1 [1]; 100 μM, day 4 post infection): 0,053 o. D. | HIV-1 antigen production as measured in antigen capture ELISA (HIV-1 [1]; 100 μM, day 5 post infection): 0,057 o. D. | HIV-1 antigen production as measured in antigen capture ELISA (HIV-1 [1]; 100 μM, day 6 post infection): 0,070 o. D. | HIV-1 antigen production as measured in antigen capture ELISA (HIV-1 [1]; 100 μM, day 7 post infection): 0,361 o. D. | HIV-1 antigen production as measured in antigen capture ELISA (HIV-1 [1]; 100 μM, day 8 post infection): 0,374 o. D. | HIV-1 antigen production as measured in antigen capture ELISA (HIV-1 [1]; [9]): 0,915 o. D. | HIV-1 antigen production as measured in antigen capture ELISA (HIV-1 [1]; [10]): 1,013 o. D. | HIV-1 antigen production as measured in antigen capture ELISA (HIV-1 [1]; 1000 μM, day 1 post infection): 0,087 o. D. | HIV-1 antigen production as measured in antigen capture ELISA (HIV-1 [1]; 1000 μM, day 2 post infection): 0,058 o. D. | HIV-1 antigen production as measured in antigen capture ELISA (HIV-1 [1]; 1000 μM, day 3 post infection): 0,073 o. D. | HIV-1 antigen production as measured in antigen capture ELISA (HIV-1 [1]; 1000 μM, day 4 post infection): 0,054 o. D. | HIV-1 antigen production as measured in antigen capture ELISA (HIV-1 [1]; 1000 μM, day 5 post infection): 0,056 o. D. | HIV-1 antigen production as measured in antigen capture ELISA (HIV-1 [1]; 1000 μM, day 6 post infection): 0,102 o. D. | HIV-1 antigen production as measured in antigen capture ELISA (HIV-1 [1]; 1000 μM, day 7 post infection): 0,286 o. D. | HIV-1 antigen production as measured in antigen capture ELISA (HIV-1 [1]; 1000 μM, day 8 post infection): 0,597 o. D. | HIV-1 antigen production as measured in antigen capture ELISA (HIV-1 [1]; [11]): 0,899 o. D. | HIV-1 antigen production as measured in antigen capture ELISA (HIV-1 [1]; [12]): 1,054 o. D. | Reverse Transkriptase Determination (HIV-1 [2]; 0,1 μM, day 7 post infection): 3929 epm/ml | Reverse Transkriptase Determination (HIV-1 [2]; 0,1 μM, day 8 post infection): 6914 epm/ml | Reverse Transkriptase Determination (HIV-1 [2]; [3]): 14455 epm/ml | Reverse Transkriptase Determination (HIV-1 [2]; [4]): 137470 epm/ml | Reverse Transkriptase Determination (HIV-1 [2]; 1 μM, day 7 post infection): 4041 epm/ml | Reverse Transkriptase Determination (HIV-1 [2]; 1 μM, day 8 post infection): 7460 epm/ml | Reverse Transkriptase Determination (HIV-1 [2]; [5]): 9502 epm/ml | Reverse Transkriptase Determination (HIV-1 [2]; [6]): 163130 epm/ml | Reverse Transkriptase Determination (HIV-1 [2]; 10 μM, day 7 post infection): 4615 epm/ml | Reverse Transkriptase Determination (HIV-1 [2]; 10 μM, day 8 post infection): 5381 epm/ml | Reverse Transkriptase Determination (HIV-1 [2]; [7]): 12517 epm/ml | Reverse Transkriptase Determination (HIV-1 [2]; [8]): 117910 epm/ml | Reverse Transkriptase Determination (HIV-1 [2]; 100 μM, day 7 post infection): 5378 epm/ml | Reverse Transkriptase Determination (HIV-1 [2]; 100 μM, day 8 post infection): 6407 epm/ml | Reverse Transkriptase Determination (HIV-1 [2]; [9]): 12893 epm/ml | Reverse Transkriptase Determination (HIV-1 [2]; [10]): 142240 epm/ml | Reverse Transkriptase Determination (HIV-1 [2]; 1000 μM, day 7 post infection): 1529 epm/ml | Reverse Transkriptase Determination (HIV-1 [2]; 1000 μM, day 8 post infection): 2121 epm/ml | Reverse Transkriptase Determination (HIV-1 [2]; [11]): 1550 epm/ml | Reverse Transkriptase Determination (HIV-1 [2]; [12]): 104660 epm/ml
